Experimental data reported in patent publication US8748180B2, “Microfluidic device for pharmacokinetic-pharmacodynamic study of drugs and uses thereof” (Cornell University, priority 2009, dated 2014).

Assays:
[1] = test system: HCT-116; assay: Toxicity experiment in static conditions, hydrogel-encapsulated cells, Trypan-blue viability, PD model fit; format: cell-based; conditions: Homo sapiens, HCT-116, 72 h, 5-FU 0, 0.1, 0.2, 0.5 mM, three days, read-out: KC50 (drug concentration where half of the maximum rate is observed), fitted PD parameter
Description: (§1) For static condition experiment, the same silicone gaskets were prepared on a glass slide, similar to the μCCA. Cells were seeded into the holes, encapsulated in hydrogel, and […] of cell culture medium were placed on top. This volume is same as the volume of medium placed in the reservoir of a μCCA. Therefore, cells in static conditions are essentially the same as the cells in a μCCA, except that the device was not assembled with the channel layer, and cells were immersed in liquid medium. Cell viability was assessed using the same method as a μCCA.

[2] = test system: HepG2/C3A; assay: as above; format: cell-based; conditions: three days
Description: as §1

[3] = test system: Kasumi-1; assay: as above; format: cell-based; conditions: Homo sapiens, Kasumi 1, 72 h, 5-FU 0, 0.1, 0.2, 0.5 mM, three days, read-out: KC50 (drug concentration where half of the maximum rate is observed), fitted PD parameter
Description: as §1

[4] = test system: dihydropyrimidine dehydrogenase (DPD); conditions: PK model parameter; calculated from rate of metabolism in a rat and reported liver protein content and cell number; cited from earlier work
[5] = previous clinical findings; cited from earlier work
[6] = test system: HepG2/C3A, HCT-116 and Kasumi-1 cells; assay: μCCA viability of three cell lines, 5-FU alone vs 5-FU plus uracil (uracil as modulator)
Description: The device was assembled by sandwiching a cell culture chamber layer and a fluidic channel layer between an aluminum bottom frame and a PLEXIGLAS® top frame. A silicone gasket and a polycarbonate base were added to ensure better sealing. […] The device was placed on a rocking platform, set to change direction at approximately every 3 min.
(§2) The whole system was placed inside a cell culture incubator with 5% CO2. After a specified amount of time, the device was dissembled and cells were retrieved by dissolving the alginate in a dissolving buffer (55 mM sodium citrate, 30 mM EDTA, 0.15M NaCl) for 30 min at 37° C., or from […] ® by dissolving in DPBS with 5 mM EDTA solution at 4° C. Cell viability was determined by Trypan-blue exclusion assay using a hemocytometer. At least triplicates were done for each data point.
The effect of uracil as a modulator of 5-FU toxicity was tested by comparing the responses of cells to 5-FU plus uracil and 5-FU alone. […] Cells were also encapsulated in a different hydrogel, […] ®, in a μCCA.

[7] = test system: HepG2/C3A; assay: Toxicity in three-chamber μCCA (dynamic conditions), Trypan-blue viability, PK-PD model fit; conditions: both static and dynamic conditions; lower Kmax or higher KC50
Description: (§3) The device was placed on a rocking platform, set to change direction at approximately every 3 min.
as §2
(§4) An integrated PK-PD model was developed by constructing a PK and PD model separately, and then combining the two. A PK model has the same layout of compartments as a μCCA device. A PD model is integrated into each compartment, describing the kinetics of cell death in each organ. To construct a PK model for a μCCA, mass balance equations describing the flow in, flow out, and metabolism were set up for each compartment, and the ordinary differential equations (ODEs) were solved numerically. Solving the equations required several parameters, such as physiological parameters (flow rate and size of chambers) and enzyme kinetic parameters for the metabolism of 5-FU and uracil, which are summarized in Table 1. […]

[8] = test system: HCT-116; assay: as above; conditions: three days
Description: as §3, §2, §4

[9] = test system: Kasumi-1; assay: as above; conditions: three days
Description: as §3, §2, §4

| SMILES | EC50 [1] | EC50 ([2]; HepG2/C3A, 72 h, 5-FU 0, 0.1, 0.2, 0.5 mM, read-out: KC50 (drug concentration where half of the maximum rate is observed), fitted PD parameter) | Drop in viability compared with other cell types [2] | EC50 [3] | Maximum rate of metabolism (Vm) [4] | Dose-limiting toxicity [5] | Sensitivity of cells to 5-FU in dynamic conditions versus static conditions [6] | Resistance to 5-FU compared with other two cell types [7] | Sensitivity to 5-FU treatment compared with hepatoma (HepG2/C3A) cell line [8] | Sensitivity to 5-FU treatment compared with hepatoma (HepG2/C3A) cell line [9] |
| --- | --- | --- | --- | --- | --- | --- | --- | --- | --- | --- |
| O=c1[nH]cc(F)c(=O)[nH]1 [5-FU, 5-fluorouracil] | 8.61 mM | 5.52 mM | slower drop in the viability | 7.41 mM | 2385 nmol/min/mL | hematological toxicity | more sensitive | most resistant | much more sensitive | much more sensitive |
| O=c1cc[nH]c(=O)[nH]1 [uracil] | – | – | – | – | 1695 nmol/min/mL | – | – | – | – | – |
